Assay results from paper PMC10349806 (Nature Communications, 2023).
“And” between values parts separate entries of the source, which are not always exact repeats. Equal values may be shown once.

Molecular target: T1, PfCRT variant E75A (Plasmodium falciparum, UniProt Q9N623, A220S/I356T/K76T/M74I/N326S/N75A/Q271E/R371I)
T1 sequence (Q9N623 1-424 M74I/N75A/K76T/A220S/Q271E/N326S/I356T/R371I): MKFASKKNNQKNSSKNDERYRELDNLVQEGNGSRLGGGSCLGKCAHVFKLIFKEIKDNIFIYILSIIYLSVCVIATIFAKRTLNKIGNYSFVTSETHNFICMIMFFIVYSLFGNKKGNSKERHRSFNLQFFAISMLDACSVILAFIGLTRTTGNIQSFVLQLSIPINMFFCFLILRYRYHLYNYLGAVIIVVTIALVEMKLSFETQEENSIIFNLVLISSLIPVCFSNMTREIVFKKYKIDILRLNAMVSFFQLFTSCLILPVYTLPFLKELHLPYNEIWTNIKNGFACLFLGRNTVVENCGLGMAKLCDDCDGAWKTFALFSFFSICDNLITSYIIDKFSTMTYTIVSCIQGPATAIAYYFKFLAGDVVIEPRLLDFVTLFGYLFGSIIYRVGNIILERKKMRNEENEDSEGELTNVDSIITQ
Test: CQ uptake assay, oocytes expressing E75A
Format: cell-based
Description: Site-directed mutagenesis of PfCRT^Dd2 was performed as described using the megaprimer method with overlap extension[21],[54]. The primer pairs used are listed in Supplementary Table 6. Please note that a codon-optimized and oocyte-adapted version of PfCRT^Dd2 was used[22] (Supplementary Fig. 16). The resulting DNA fragment was cloned into the SP64T expression vector and verified by sequencing.
Oocytes were obtained as described previously. Briefly, adult (>2 years old) female X. laevis frogs (NASCO) were anesthetized in a cooled solution of ethyl 3-amino benzoate methanesulfonate (0.1%, w/v), followed by a surgical removal of parts of the ovary. The ovary lobes were carefully dissected and small pieces of oocytes were incubated in Ca^2+-free ND96 buffer (96 mM NaCl, 2 mM KCl, 1 mM MgCl2 buffered with 5 mM HEPES/NaOH, pH 7.5) supplemented with collagenase D (0.1%, w/v; Roche), BSA (0.5%, w/v), and 9 mm Na2HPO4 at 18 °C for 14-16 h while gentle shaking. After incubation, the oocytes were carefully washed several times with ND96 buffer (96 mM NaCl, 2 mM KCl, 1.8 mM CaCl2, 1 mM MgCl2 buffered with 5 mM HEPES/NaOH, pH 7.5) supplemented with 100 mg l^−1 gentamycin). Defolliculated and healthy-looking stage V-VI oocytes were manually selected for RNA microinjection. The RNA was generated as following: The codon-optimized sequences of PfCRT variants were cloned into the pSP64T expression vector. After vector linearization using the restriction endonucleases BamHI or SalI (New England Biolabs), transcription was performed using the in vitro SP6 mMessage mMachine Kit (Ambion)[34]. The obtained RNA was kept at −80 °C and diluted with nuclease-free water to a concentration of 0.6 μg μl^−1. Precision-bore glass capillary tubes (3.5-inch glass capillaries; Drummond Scientific Co.) were pulled on a vertical puller (P-87 Flaming/Brown micropipette puller, Sutter Instrument Co.), graduated, and placed on a microinjector (Nanoject II Auto-Nanoliter Injector, Drummond Scientific Co.). 50 nl of nuclease-free water alone (control oocytes) or 50 nl of 0.6 μg μl^−1 RNA were injected under stereomicroscopic control. Injected oocytes were incubated for 46–72 h at 18 °C with twice-daily buffer changes before usage in experiments.
Drug uptake assays were performed as described previously[21],[22],[24],[34]. […] The direction of radio-labeled drug transport is here from the mostly acidic extracellular solution (pH 4.5 or 6.0, as indicated) into the oocyte cytosol (pH ∼ 7.2), which corresponds to the efflux of drug from the acidic digestive vacuole (pH 5.2) into the parasite cytoplasm (pH 7.2). The topology of PfCRT in the oolemma is such that both the N- and C-terminus face the extracellular milieu[3],[22]. In the parasite, the N- and C-terminus face the lumen of the digestive vacuole. […] For determination of the amount of drug uptake for each oocyte, the reaction medium was removed and the oocytes were washed three times with 2 ml of ice-cold ND96 buffer. Each oocyte was individually transferred to a scintillation vial containing 5% sodium dodecyl sulfate (200 μl) for lysis. […] Oocytes that were injected with water instead of RNA were analyzed in parallel, representing the uptake of a drug by diffusion and/or endogenous permeation pathways. […] The specific PfCRT-mediated uptake was determined by subtracting the corresponding background value measured in water-injected oocytes from that of PfCRT-expressing oocytes. […]

`CCN(CC)CCCC(C)Nc1ccnc2cc(Cl)ccc12` (centres unmarked) [CQ, chloroquine] was tested, and the “Activity at pH 4.5” value (E75A, 50 µM CQ, 1 h, mean ± SEM) was 0.89 ± 0.11 pmol h-1 oocyte-1, the R-value (E75A, CQ transport at pH 4.5 / pH 6.0) was 0.51 ± 0.05 and the “E75A transport activity pH 4.5” value (pH 4.5, single replicates, Fig 1d left) was 0.71 pmol oocyte-1 h-1 and 1.15 pmol oocyte-1 h-1 and 0.80 pmol oocyte-1 h-1. For the same molecule, the “E75A R-value” (pH 4.5 vs pH 6.0, Fig 1d left) was 0.40 and 0.62 and 0.50 and the “E75A transport activity pH 6.0” value (pH 6.0, single replicates, Fig 1d left) was 1.76 pmol oocyte-1 h-1 and 1.84 pmol oocyte-1 h-1 and 1.60 pmol oocyte-1 h-1.
